Values of other authors as cited in patent EP2959895A1, “Compositions comprising Phenylalanine and Leucine for use in the diagnosis and treatment of neurological disorders and symptoms thereof” (Rheinisch-Westfälische Technische Hochschule Aachen (RWTH), priority 2014, dated 2015).

Biological target: T1, L-1 transporter (Rattus norvegicus, UniProt Q63016)
T1 construct: blood brain barrier (BBB) transport for fourteen amino acids in anesthetized rats; host or cells: Blood-brain barrier of anesthetized rats, in vivo
Conditions: blood brain barrier (BBB) transport, anesthetized rats; Pardridge and Oldendorf 1975

T1 sequence (Q63016 whole entry): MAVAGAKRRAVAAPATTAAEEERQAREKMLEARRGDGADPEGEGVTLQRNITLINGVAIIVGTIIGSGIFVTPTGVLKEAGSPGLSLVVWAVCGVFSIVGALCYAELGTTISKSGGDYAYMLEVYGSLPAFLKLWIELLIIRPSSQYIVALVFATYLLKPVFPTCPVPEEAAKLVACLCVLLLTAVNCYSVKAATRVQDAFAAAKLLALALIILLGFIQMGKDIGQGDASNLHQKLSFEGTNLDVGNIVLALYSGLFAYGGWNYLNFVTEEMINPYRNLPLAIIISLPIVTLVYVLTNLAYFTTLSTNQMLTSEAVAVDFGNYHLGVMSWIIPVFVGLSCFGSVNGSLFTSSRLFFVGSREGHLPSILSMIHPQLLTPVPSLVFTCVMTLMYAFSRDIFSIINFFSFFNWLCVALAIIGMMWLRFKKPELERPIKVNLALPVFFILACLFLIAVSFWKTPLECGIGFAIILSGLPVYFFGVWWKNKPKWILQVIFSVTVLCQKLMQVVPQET
T1 sequence (Q794F9 whole entry partner): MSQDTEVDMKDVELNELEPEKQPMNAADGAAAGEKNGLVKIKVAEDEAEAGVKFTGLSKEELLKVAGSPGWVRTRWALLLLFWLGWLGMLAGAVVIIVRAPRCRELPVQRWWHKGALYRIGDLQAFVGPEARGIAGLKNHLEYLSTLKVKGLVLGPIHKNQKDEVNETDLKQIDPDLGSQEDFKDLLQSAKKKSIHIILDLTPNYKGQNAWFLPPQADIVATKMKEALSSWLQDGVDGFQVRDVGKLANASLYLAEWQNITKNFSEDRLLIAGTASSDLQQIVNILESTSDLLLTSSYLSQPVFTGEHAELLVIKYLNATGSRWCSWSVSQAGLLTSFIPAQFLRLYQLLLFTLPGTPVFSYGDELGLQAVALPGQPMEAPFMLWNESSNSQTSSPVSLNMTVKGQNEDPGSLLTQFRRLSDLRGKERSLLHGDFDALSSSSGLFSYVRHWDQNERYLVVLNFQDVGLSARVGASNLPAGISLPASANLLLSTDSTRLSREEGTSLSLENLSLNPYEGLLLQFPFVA

SMILES	Km [µM]
N[C@@H](Cc1ccccc1)C(=O)O [phenylalanine]	120
CC(C)C[C@H](N)C(=O)O [leucine]	150
